Holding throughout (type): cell-based
Assay [1] has as its system Candida albicans ATCC 37092. The conditions noted are these: ATCC 37092, radial diffusion assay, triplicates. The source says: (§1) Ten organisms obtained from the American Type Culture Collection (ATCC; Rockville, MD) were used for antimicrobial assays. Four Gram-negative bacteria included Escherichia coli ATCC 25922, Pseudomonas aeruginosa ATCC 27853, Klebsiella oxytoca ATCC 49131, and Proteus vulgaris ATCC 49132. The three Gram-positive bacteria were Staphylococcus aureus 29213, Micrococcus luteus ATCC 49,732, and Enterococcus faecalis ATCC 29212. The three fungi were Candida albicans ATCC 37092, Candida kefyr ATCC 37095, and Candida tropicalis ATCC 37097. The clinical isolates were obtained from Singapore General Hospital (SGH). They are Enterococcus faecium, Staphylococcus aureus, Klebsiella pneumoniae, Acinetobacter baumannii, Pseudomonas aeruginosa, and Enterobacter species. The strains were incubated in trypticase soy broth (TSB), which was prepared in double distilled water and autoclaved for sterilization. TSB was purchased from Becton-Dickinson (Cockeysville, MD, USA).
(§2) Antimicrobial Assays. A sensitive and reproducible two-stage radial diffusion antimicrobial assay of Lehrer et al. was employed. A 1–4 × 10^6 colony-forming unit/mL of the test organism was mixed with 10 mL of molten underlay gel solution and poured into Petri dishes to form a uniform layer. The gel solution consisted of 10 mM sodium phosphate buffer, 0.03% TSB, and 0.02% Tween-20, with the addition of 100 mM NaCl in the case of high-salt conditions. Upon gel solidification, gel wells were made by a 3-mm diameter template in an evenly spaced array. A 5 µL aliquot of a serial half-log dilution of test peptides at seven concentrations was added to each well after removal of gel plugs. The dishes were incubated at 37 °C for 3 h to allow peptide diffusion into the underlay gels. Gels were overlaid with 10 mL of 1% agarose in 6% TSB (wt/vol). After additional incubation at 37 °C for 16–24 h, the diameter of the clear zone surrounding the wells (colony-free) was measured under a microscope. Antimicrobial activities were expressed in units (0.1 mm = 1 unit), and the MICs (in µM) were determined from the x-intercepts of the dose-response curves. Experiments were performed in triplicates.

Assay [2] relates to Staphylococcus aureus 29213. The conditions noted are these: strain 29213, radial diffusion assay, triplicates.
From the text: as §1, §2

The subject of assay [3] is Candida tropicalis ATCC 37097. Particulars: ATCC 37097, radial diffusion assay, triplicates.
From the text: as §1, §2

The next assay deals with Candida kefyr ATCC 37095. The conditions noted are these: ATCC 37095, radial diffusion assay, triplicates.
From the text: as §1, §2

In assay [4] the test system is Klebsiella oxytoca ATCC 49131. The conditions noted are these: ATCC 49131, radial diffusion assay, triplicates.
From the text: as §1, §2

Assay [5] has as its system Pseudomonas aeruginosa ATCC 27853. The conditions noted are these: ATCC 27853, radial diffusion assay, triplicates.
From the text: as §1, §2

In assay [6] the test system is Proteus vulgaris ATCC 49132. Particulars: ATCC 49132, radial diffusion assay, triplicates.
From the text: as §1, §2

Assay [7] relates to Escherichia coli ATCC 25922. The conditions noted are these: ATCC 25922, two-stage radial diffusion assay, 37 °C, x-intercept of dose-response curve, triplicates.
From the text: as §1, §2

Assay [8] concerns Enterococcus faecalis ATCC 29212. The conditions noted are these: ATCC 29212, radial diffusion assay, triplicates.
From the text: as §1, §2

Assay [9] has as its system Micrococcus luteus ATCC 49,732. Particulars: ATCC 49,732, radial diffusion assay, triplicates.
From the text: as §1, §2

Each structure is given as a SMILES string. Residues, ends and D or L forms follow the SMILES beside them.

Consider `CC(=O)NCCCC[C@H](NC(=O)[C@H](CCCNC(=N)N)NC(=O)[C@H](Cc1ccc(O)cc1)NC(=O)[C@H](CC(C)C)NC(=O)[C@@H](N)CCCNC(=N)N)C(=O)NCCCC[C@H](NC(=O)[C@H](CCCNC(=N)N)NC(=O)[C@H](Cc1ccc(O)cc1)NC(=O)[C@H](CC(C)C)NC(=O)[C@@H](N)CCCNC(=N)N)C(=O)NCCCC[C@H](NC(=O)[C@H](CCCNC(=N)N)NC(=O)[C@H](Cc1ccc(O)cc1)NC(=O)[C@H](CC(C)C)NC(=O)[C@@H](N)CCCNC(=N)N)C(=O)NCCCC[C@H](NC(=O)[C@H](CCCNC(=N)N)NC(=O)[C@H](Cc1ccc(O)cc1)NC(=O)[C@H](CC(C)C)NC(=O)[C@@H](N)CCCNC(=N)N)C(N)=O` [iK4R] (HELM PEPTIDE1{R.L.Y.R.K}|PEPTIDE2{[ac]}|PEPTIDE3{R.L.Y.R.K}|PEPTIDE4{R.L.Y.R.K}|PEPTIDE5{R.L.Y.R.K.[am]}$PEPTIDE1,PEPTIDE2,5:R3-1:R2|PEPTIDE1,PEPTIDE3,5:R2-5:R3|PEPTIDE3,PEPTIDE4,5:R2-5:R3|PEPTIDE4,PEPTIDE5,5:R2-5:R3$$$V2.0), for which, in [1] (high-salt (100 mM NaCl)), the “MIC, C. albicans, H-Salt” value was found to be 0.9 µM. In addition, in assay [1] (low-salt (without NaCl)), the “MIC, C. albicans, L-Salt” value is given as 0.8 µM. In addition, in assay [2] (high-salt (100 mM NaCl)), the “MIC, S. aureus, H-Salt” value is 0.6 µM. In [2] (low-salt (without NaCl)), the “MIC, S. aureus, L-Salt” value came out at 0.7 µM. Moreover, the “MIC, C. tropicalis, H-Salt” value in assay [3] (high-salt (100 mM NaCl)) worked out at 1.3 µM. Also, in assay [3] (low-salt (without NaCl)), the “MIC, C. tropicalis, L-Salt” value is on record as 0.5 µM. In the assay on Candida kefyr ATCC 37095 (high-salt (100 mM NaCl)), the “MIC, C. kefyr, H-Salt” value amounted to 0.8 µM. Moreover, the “MIC, C. kefyr, L-Salt” value with Candida kefyr ATCC 37095 (low-salt (without NaCl)) was found to be 0.8 µM. In assay [4] (high-salt (100 mM NaCl)), the “MIC, K. oxytoca, H-Salt” value turned out to be 0.7 µM. The “MIC, K. oxytoca, L-Salt” value in assay [4] (low-salt (without NaCl)) is on record as 0.5 µM. The “MIC, P. aeruginosa, H-Salt” value in [5] (high-salt (100 mM NaCl)) was determined as 0.7 µM. Also, the “MIC, P. aeruginosa, L-Salt” value in assay [5] (low-salt (without NaCl)) is on record as 0.5 µM. For the same molecule, in [6] (high-salt (100 mM NaCl)), the “MIC, P. vulgaris, H-Salt” value turned out to be 0.7 µM. Besides, the “MIC, P. vulgaris, L-Salt” value in [6] (low-salt (without NaCl)) worked out at 0.8 µM. Moreover, the “MIC, E. coli, H-Salt” value in assay [7] (high-salt (underlay gel 10 mM sodium phosphate, 0.03% TSB, 0.02% Tween-20, with 100 mM NaCl)) is recorded as 0.4 µM. Moreover, the “MIC, E. coli, L-Salt” value in assay [7] (low-salt (underlay gel 10 mM sodium phosphate, 0.03% TSB, 0.02% Tween-20, without NaCl)) was 0.4 µM. Moreover, the “MIC, E. faecalis, H-Salt” value in assay [8] (high-salt (100 mM NaCl)) was 1.4 µM. Further, the “MIC, E. faecalis, L-Salt” value in assay [8] (low-salt (without NaCl)) was determined as 0.8 µM. In addition, the “MIC, M. luteus, H-Salt” value in assay [9] (high-salt (100 mM NaCl)) is reported as 0.8 µM. Besides, in [9] (low-salt (without NaCl)), the “MIC, M. luteus, L-Salt” value turned out to be 0.9 µM.

(Values after publication PMC10489980, “Design of Potent and Salt-Insensitive Antimicrobial Branched Peptides” (Polymers, 2023).)
